{"source": "paper PMC9270327", "about": "(Communications Biology, 2022)", "key": {"[1]": {"biological_target": "T1, recombinant human thrombin (Homo sapiens, UniProt P00734)", "T1 construct": "purchased R&D Systems (Minneapolis, MN, USA)", "assay": "Enzyme inhibition assay with purified thrombin (Ki, dose-response)", "assay_type": "biochemical", "conditions": "for thrombin activity, Mean (Fig. 2c): normalized, 0 nM = 100", "description": "(§1) Recombinant human TMPRSS2 was purchased from Creative BioMart (New York, USA) or LSBio (Seattle, USA), factor Xa was obtained from Bio-Techne GmbH (Wiesbaden, Germany). Recombinant human thrombin and matriptase protein were purchased from R&D Systems (Minneapolis, MN, USA)."}, "factor Xa": {"biological_target": "T2, factor Xa (Homo sapiens, UniProt P00742)", "T2 construct": "purchased Bio-Techne GmbH (Wiesbaden, Germany)", "T2 sequence (P00742 235-488 limits assumed)": "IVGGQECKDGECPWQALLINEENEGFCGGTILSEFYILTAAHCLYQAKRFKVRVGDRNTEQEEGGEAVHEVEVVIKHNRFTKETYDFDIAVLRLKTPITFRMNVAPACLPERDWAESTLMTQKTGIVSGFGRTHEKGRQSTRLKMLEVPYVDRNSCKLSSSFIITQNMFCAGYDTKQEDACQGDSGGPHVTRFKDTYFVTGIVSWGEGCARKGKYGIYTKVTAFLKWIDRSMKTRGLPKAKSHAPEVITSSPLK", "T2 sequence (P00742 41-179 partner limits assumed)": "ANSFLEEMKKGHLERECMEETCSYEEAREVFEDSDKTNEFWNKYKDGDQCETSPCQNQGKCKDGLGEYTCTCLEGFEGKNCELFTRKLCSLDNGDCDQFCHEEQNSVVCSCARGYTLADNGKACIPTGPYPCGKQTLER", "assay": "Enzyme inhibition assay with purified factor Xa (Ki, dose-response)", "assay_type": "biochemical", "conditions": "for factor Xa activity, Mean (Fig. 2d): normalized, 0 nM = 100", "description": "as §1"}, "[2]": {"biological_target": "cellular TMPRSS2 activity, Caco-2 cells (Homo sapiens, UniProt O15393)", "sequence (O15393 whole entry)": "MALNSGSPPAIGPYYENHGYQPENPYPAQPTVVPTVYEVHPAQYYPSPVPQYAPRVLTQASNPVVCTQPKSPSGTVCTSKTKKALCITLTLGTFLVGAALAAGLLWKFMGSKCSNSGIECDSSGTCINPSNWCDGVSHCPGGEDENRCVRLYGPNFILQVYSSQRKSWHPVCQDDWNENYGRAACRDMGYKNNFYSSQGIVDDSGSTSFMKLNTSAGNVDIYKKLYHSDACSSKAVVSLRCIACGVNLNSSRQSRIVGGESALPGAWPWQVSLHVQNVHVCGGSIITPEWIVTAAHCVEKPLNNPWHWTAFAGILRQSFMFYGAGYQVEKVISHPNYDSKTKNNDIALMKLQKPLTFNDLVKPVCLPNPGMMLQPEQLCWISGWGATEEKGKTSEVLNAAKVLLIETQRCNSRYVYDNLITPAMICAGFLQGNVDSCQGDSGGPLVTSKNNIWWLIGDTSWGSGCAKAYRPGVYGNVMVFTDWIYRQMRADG", "conditions": "for cellular protease activity on Caco-2 cells, Mean (Fig. 4a): normalized, 0 nM = 100", "method": "(§2) In total, 10,000 Caco-2 cells (ATCC) in 100 µL EMEM medium supplemented with 10% FBS, 100 U/mL penicillin, […] streptomycin, and 2 mM glutamine (all Invitrogen, Germany) were seeded per well in a 96-well plate and incubated at 37 °C for 4 days until full confluency of the cells. The cells were washed two times with PBS and EMEM medium without FBS was added. […] The fluorescence intensity was measured as described above. In all, 20,000 HEK293T cells (ATCC) were seeded in 100 µL DMEM supplemented with 10% FBS, 100 U/mL penicillin, […] streptomycin, and 2 mM glutamine. […] After 14 h, transfection mix was removed from the cells and 80 µL fresh medium without FBS and 10 µL inhibitors were added (final concentration 50 µM). […] Fluorescence intensity was measured after 2 h at 37 °C as described above."}, "[3]": {"biological_target": "T3, TMPRSS2 expressed in HEK293T cells (Homo sapiens, UniProt O15393)", "T3 construct": "host or cells: HEK293T (ATCC)", "T3 sequence (O15393 whole entry)": "as above", "assay": "Inhibition of cellular TMPRSS2 activity on HEK293T cells transiently expressing TMPRSS2", "assay_type": "cell-based", "conditions": "2 h; for normalized fluorescence intensity, HEK293T TMPRSS2, Mean (Fig. 4b): corrected for mock-transfected cells", "method": "as §2, with “After 14 h, transfection mix was removed from the cells and 80 µL fresh medium without FBS and 10 µL inhibitors were added (final concentration 50 µM).” left out"}, "[4]": {"test_system": "lentiviral pseudoparticles carrying SARS-CoV-2 Delta (B.1.617.2) spike, Caco-2 cells", "assay_type": "cell-based", "conditions": "for SARS-CoV-2 spike driven entry, Mean (0 nM = 100): Fig. 5d"}, "[5]": {"test_system": "lentiviral pseudoparticles carrying SARS-CoV-2 Omicron BA.1 (B.1.1.529) spike, Caco-2 cells", "assay_type": "cell-based"}}, "note": "“And” between values parts separate entries of the source, which are not always exact repeats. Identical values can stand only once. Like-named read-outs stand apart in the source and are kept apart here.", "data": [{"substance": "ace-Arg-Pro-Arg-kbt [Compound 2]", "values": [{"measurement": "thrombin activity, Mean (Fig. 2c)", "setting": "[1]; 0.02 nM", "value": 98.5684}, {"measurement": "thrombin activity, Mean (Fig. 2c)", "setting": "[1]; 0.04 nM", "value": 95.6033}, {"measurement": "thrombin activity, Mean (Fig. 2c)", "setting": "[1]; 0.2 nM", "value": 102.761}, {"measurement": "thrombin activity, Mean (Fig. 2c)", "setting": "[1]; 2 nM", "value": 99.4379}, {"measurement": "thrombin activity, Mean (Fig. 2c)", "setting": "[1]; 20 nM", "value": 100.358}, {"measurement": "thrombin activity, Mean (Fig. 2c)", "setting": "[1]; 200 nM", "value": 86.605}, {"measurement": "thrombin activity, Mean (Fig. 2c)", "setting": "[1]; 10000 nM", "value": 11.4518}, {"measurement": "thrombin activity, Mean (Fig. 2c)", "setting": "[1]; 100000 nM", "value": -13.8043}, {"measurement": "Ki", "setting": "[1]; 30 min preincubation, substrate D-Phe-Homopro-Arg-pNA", "value": 599, "unit": "nM"}, {"measurement": "Selectivity index Thrombin", "setting": "[1]; quotient Ki thrombin / Ki TMPRSS2", "value": 158}, {"measurement": "factor Xa activity, Mean (Fig. 2d)", "setting": "factor Xa; 0.02 nM", "value": 109.27}, {"measurement": "factor Xa activity, Mean (Fig. 2d)", "setting": "factor Xa; 0.04 nM", "value": 100.653}, {"measurement": "factor Xa activity, Mean (Fig. 2d)", "setting": "factor Xa; 0.2 nM", "value": 101.827}, {"measurement": "factor Xa activity, Mean (Fig. 2d)", "setting": "factor Xa; 2 nM", "value": 97.7797}, {"measurement": "factor Xa activity, Mean (Fig. 2d)", "setting": "factor Xa; 20 nM", "value": 88.6416}, {"measurement": "factor Xa activity, Mean (Fig. 2d)", "setting": "factor Xa; 200 nM", "value": 49.7393}, {"measurement": "factor Xa activity, Mean (Fig. 2d)", "setting": "factor Xa; 10000 nM", "value": 7.702}, {"measurement": "factor Xa activity, Mean (Fig. 2d)", "setting": "factor Xa; 100000 nM", "value": 2.742}, {"measurement": "Ki", "setting": "factor Xa; 30 min preincubation, substrate Bz-Ile-Glu-Gly-Arg-pNA", "value": 107, "unit": "nM"}, {"measurement": "Selectivity index Factor Xa", "setting": "factor Xa; quotient Ki factor Xa / Ki TMPRSS2", "value": 28.1}, {"measurement": "cellular protease activity on Caco-2 cells, Mean (Fig. 4a)", "setting": "[2]; 0.1 nM", "value": 109.802}, {"measurement": "cellular protease activity on Caco-2 cells, Mean (Fig. 4a)", "setting": "[2]; 1 nM", "value": 82.1942}, {"measurement": "cellular protease activity on Caco-2 cells, Mean (Fig. 4a)", "setting": "[2]; 10 nM", "value": 70.6835}, {"measurement": "cellular protease activity on Caco-2 cells, Mean (Fig. 4a)", "setting": "[2]; 100 nM", "value": 32.9137}, {"measurement": "cellular protease activity on Caco-2 cells, Mean (Fig. 4a)", "setting": "[2]; 1000 nM", "value": -3.058}, {"measurement": "cellular protease activity on Caco-2 cells, Mean (Fig. 4a)", "setting": "[2]; 10000 nM", "value": 1.349}, {"measurement": "cellular protease activity on Caco-2 cells, Mean (Fig. 4a)", "setting": "[2]; 100000 nM", "value": 2.158}, {"measurement": "IC50", "setting": "[2]; read-out: IC50 Caco2, cell-mediated proteolysis of Boc-Gln-Ala-Arg-AMC, 30 min preincubation", "value": 32, "unit": "nM"}, {"measurement": "normalized fluorescence intensity, HEK293T TMPRSS2, Mean (Fig. 4b)", "setting": "[3]; 0.5 nM", "value": 60.175}, {"measurement": "normalized fluorescence intensity, HEK293T TMPRSS2, Mean (Fig. 4b)", "setting": "[3]; 5 nM", "value": 47.265}, {"measurement": "normalized fluorescence intensity, HEK293T TMPRSS2, Mean (Fig. 4b)", "setting": "[3]; 50 nM", "value": 34.28}, {"measurement": "normalized fluorescence intensity, HEK293T TMPRSS2, Mean (Fig. 4b)", "setting": "[3]; 500 nM", "value": 7.97}, {"measurement": "normalized fluorescence intensity, HEK293T TMPRSS2, Mean (Fig. 4b)", "setting": "[3]; 5000 nM", "value": 0.76}, {"measurement": "normalized fluorescence intensity, HEK293T TMPRSS2, Mean (Fig. 4b)", "setting": "[3]; 50000 nM", "value": -5.7}, {"measurement": "IC50", "setting": "[3]; corrected for mock-transfected HEK293T cells", "value": 3.5, "unit": "nM"}, {"measurement": "IC50", "setting": "[4]; Caco-2 cells, luciferase 2 days post transduction, read-out: IC50 pseudotyped lentivirus Delta", "value": 627, "unit": "nM"}, {"measurement": "SARS-CoV-2 spike driven entry, Mean (0 nM = 100)", "setting": "[4]; compound 3.2 nM", "value": 94.6384}, {"measurement": "SARS-CoV-2 spike driven entry, Mean (0 nM = 100)", "setting": "[4]; compound 16 nM", "value": 93.9983}, {"measurement": "SARS-CoV-2 spike driven entry, Mean (0 nM = 100)", "setting": "[4]; compound 80 nM", "value": 82.6624}, {"measurement": "SARS-CoV-2 spike driven entry, Mean (0 nM = 100)", "setting": "[4]; compound 400 nM", "value": 60.9224}, {"measurement": "SARS-CoV-2 spike driven entry, Mean (0 nM = 100)", "setting": "[4]; compound 2000 nM", "value": 29.6704}, {"measurement": "SARS-CoV-2 spike driven entry, Mean (0 nM = 100)", "setting": "[4]; compound 10000 nM", "value": 4.245}, {"measurement": "SARS-CoV-2 spike driven entry, Mean (0 nM = 100)", "setting": "[4]; compound 50000 nM", "value": 0.86}, {"measurement": "SARS-CoV-2 spike driven entry, Mean (0 nM = 100)", "setting": "[5]", "value": "80.0549 and 94.4227 and 98.8201"}, {"measurement": "IC50", "setting": "[5]; Caco-2 cells, luciferase 2 days post transduction, read-out: IC50 pseudotyped lentivirus Omicron BA.1", "value": 431, "unit": "nM"}, {"measurement": "SARS-CoV-2 spike driven entry, Mean (0 nM = 100)", "setting": "[5]; Fig. 5e, compound 400 nM, […]", "value": 52.4269}, {"measurement": "SARS-CoV-2 spike driven entry, Mean (0 nM = 100)", "setting": "[5]; Fig. 5e, compound 2000 nM, […]", "value": 20.742}, {"measurement": "SARS-CoV-2 spike driven entry, Mean (0 nM = 100)", "setting": "[5]; Fig. 5e, compound 10000 nM, […]", "value": 5.628}, {"measurement": "SARS-CoV-2 spike driven entry, Mean (0 nM = 100)", "setting": "[5]; Fig. 5e, compound 50000 nM, […]", "value": 3.26}]}]}
